Tested on: SEM cells
Assay: cell viability relative to DMSO control; higher = less cytotoxic
Settings: 48 h
In short: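 NOMO1 or SEM cells were plated at 500 cells/well and P12-Ichikawa cells at 1000 cells/well in 1536-well plates (5 μl), after each leukemia line had been adapted for at least four passages in each medium. Pin dosing delivered library compounds in DMSO at 11 threefold concentrations, 47 μM to 0.79 nM. CellTiter-Glo One luminescence was read after 48 h at 37°C. Viability is reported as a per-plate percentage of DMSO wells, with cell-free wells as background.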

[1] = HPLM + 10% dialyzed FBS, 0.000781 µM
[2] = HPLM + 10% dialyzed FBS, 0.00234 µM
[3] = HPLM + 10% dialyzed FBS, 0.00702 µM
[4] = HPLM + 10% dialyzed FBS, 0.0211 µM
[5] = HPLM + 10% dialyzed FBS, 0.0632 µM
[6] = HPLM + 10% dialyzed FBS, 0.19 µM
[7] = HPLM + 10% dialyzed FBS, 0.569 µM
[8] = HPLM + 10% dialyzed FBS, 1.71 µM
[9] = HPLM + 10% dialyzed FBS, 5.12 µM
[10] = HPLM + 10% dialyzed FBS, 15.4 µM
[11] = HPLM + 10% dialyzed FBS, 46.1 µM
[12] = RPMI 5 mM glucose + 10% FBS, 0.000781 µM
[13] = RPMI 5 mM glucose + 10% FBS, 0.00234 µM
[14] = RPMI 5 mM glucose + 10% FBS, 0.00702 µM
[15] = RPMI 5 mM glucose + 10% FBS, 0.0211 µM
[16] = RPMI 5 mM glucose + 10% FBS, 0.0632 µM
[17] = RPMI 5 mM glucose + 10% FBS, 0.19 µM
[18] = RPMI 5 mM glucose + 10% FBS, 0.569 µM
[19] = RPMI 5 mM glucose + 10% FBS, 1.71 µM
[20] = RPMI 5 mM glucose + 10% FBS, 5.12 µM
[21] = RPMI 5 mM glucose + 10% FBS, 15.4 µM
[22] = RPMI 5 mM glucose + 10% FBS, 46.1 µM
[23] = RPMI 5 mM glucose + 10% dialyzed FBS, 0.000781 µM
[24] = RPMI 5 mM glucose + 10% dialyzed FBS, 0.00234 µM
[25] = RPMI 5 mM glucose + 10% dialyzed FBS, 0.00702 µM
[26] = RPMI 5 mM glucose + 10% dialyzed FBS, 0.0211 µM
[27] = RPMI 5 mM glucose + 10% dialyzed FBS, 0.0632 µM
[28] = RPMI 5 mM glucose + 10% dialyzed FBS, 0.19 µM
[29] = RPMI 5 mM glucose + 10% dialyzed FBS, 0.569 µM
[30] = RPMI 5 mM glucose + 10% dialyzed FBS, 1.71 µM
[31] = RPMI 5 mM glucose + 10% dialyzed FBS, 5.12 µM
[32] = RPMI 5 mM glucose + 10% dialyzed FBS, 15.4 µM
[33] = RPMI 5 mM glucose + 10% dialyzed FBS, 46.1 µM

Row | SMILES | cell viability [1] | cell viability [2] | cell viability [3] | cell viability [4] | cell viability [5] | cell viability [6] | cell viability [7] | cell viability [8] | cell viability [9] | cell viability [10] | cell viability [11] | cell viability [12] | cell viability [13] | cell viability [14] | cell viability [15] | cell viability [16] | cell viability [17] | cell viability [18] | cell viability [19] | cell viability [20] | cell viability [21] | cell viability [22] | cell viability [23] | cell viability [24] | cell viability [25] | cell viability [26] | cell viability [27] | cell viability [28] | cell viability [29] | cell viability [30] | cell viability [31] | cell viability [32] | cell viability [33]
1 | CC1(C)[C@@H](O)CC[C@@]2(C)[C@H]1CC[C@]3(C)[C@@H]2C(=O)\C=C/4[C@@H]5C[C@](C)(CC[C@]5(C)CC[C@@]34C)C(O)=O | 99.3% | 98.8% | 99.7% | 104% | 105% | 93.9% | 99% | 110% | 99.3% | 90.7% | 86.9% | 98.4% | 113% | 108% | 108% | 101% | 113% | 97.3% | 108% | 99.6% | 101% | 86.1% | 100% | 92.7% | 112% | 109% | 98.6% | 108% | 114% | 103% | 90.2% | 107% | 102%
2 | COc1ccc(/C=C/C(=O)Nc2ccccc2C(=O)O)cc1OC | – | – | – | – | – | – | – | – | – | – | – | 109% | 140% | 118% | 130% | 99.4% | 97.5% | 110% | 116% | 125% | 106% | 104% | 94.7% | 115% | 110% | 108% | 35.1% | 115% | 96.7% | 110% | 116% | 129% | 96.7%
3 | COCCCC/C(=N\OCCN)c1ccc(C(F)(F)F)cc1 | 86.4% | 100% | 75.7% | 80.8% | 92% | 76.1% | 83.9% | 96.9% | 75.4% | 77% | 28.1% | 94.3% | 86.1% | 79.7% | 94.5% | 92.7% | 85.9% | 87.2% | 92% | 74.6% | 73.7% | 35.6% | 105% | 103% | 88.7% | 95.8% | 111% | 100% | 91.6% | 106% | 99.4% | 93.1% | 52.3%
4 | Cc1ccc(C(=O)Nc2ccc([S+](=O)([O-])O)c3cc([S+](=O)([O-])O)cc([S+](=O)([O-])O)c23)cc1NC(=O)c1cccc(NC(=O)Nc2cccc(C(=O)Nc3cc(C(=O)Nc4ccc([S+](=O)([O-])O)c5cc([S+](=O)([O-])O)cc([S+](=O)([O-])O)c45)ccc3C)c2)c1 | 96.8% | 105% | 96.2% | 100% | 115% | 91.4% | 101% | 93.8% | 68.5% | 44.4% | 33.1% | 109% | 128% | 120% | 121% | 113% | 112% | 100% | 115% | 52.7% | 21.2% | 22.7% | 85% | 97.2% | 100% | 88.6% | 98.4% | 86% | 94.9% | 86.5% | 55.1% | 23.9% | 23.7%
5 | CC(C)[C@H](O)C(=O)N[C@@H](C)C(=O)N[C@@H]1C(=O)N(C)CCc2ccccc21 | 118% | 122% | 127% | 111% | 132% | 82.7% | 119% | 110% | 74% | 110% | 107% | – | – | – | – | – | – | – | – | – | – | – | 120% | 135% | 116% | 103% | 119% | 94.6% | 97.5% | 109% | 38.1% | 106% | 95.7%
6 | CNC(=O)c1nn(C)c2c1C(C)(C)Cc1cnc(Nc3ccc(N4CCN(C)CC4)cc3)nc1-2 | 108% | 101% | 103% | 93% | 89.1% | 64.6% | 39.3% | 16% | 12% | 7.99% | 7.09% | 115% | 97.1% | 113% | 104% | 86.5% | 67.4% | 48.8% | 13.8% | 8.18% | 5.66% | 2.21% | 97.9% | 101% | 101% | 110% | 78.6% | 69.5% | 47.2% | 16.8% | 9.79% | 7.03% | 4.75%
7 | CC[C@H]1OC(=O)[C@H](C)[C@@H](O[C@H]2C[C@@](C)(OC)[C@@H](O)[C@H](C)O2)[C@H](C)[C@@H](O[C@@H]2O[C@H](C)C[C@H](N(C)C)[C@H]2O)[C@](C)(O)C[C@@H](C)/C(=N\OCOCCOC)[C@H](C)[C@@H](O)[C@]1(C)O | 95.3% | 89% | 95.1% | 95.3% | 105% | 83.1% | 76.7% | 93.6% | 85.2% | 80.5% | 73.4% | 107% | 98.1% | 109% | 108% | 111% | 87.4% | 94.6% | 97.5% | 96.9% | 87.9% | 95.6% | 103% | 104% | 107% | 116% | 108% | 96.3% | 92.9% | 103% | 100% | 93.8% | 71.7%

Source: the supplement of paper PMC11451515
